According to patent US11542240B2, “STK19 inhibitors for treatment of cancer” (TRUSTEES OF BOSTON UNIVERSITY, priority 2018, dated 2023):

Experiments:
STK19 = STK19 (Homo sapiens (Human), UniProt P49842); assay: STK19 kinase inhibitory activity, ADP-Glo kinase assay with NRAS substrate; assay type: biochemical
SK-MEL-2 cells = assay type: cell-based, human; conditions: SK-MEL-2, G9a inhibition by A-366
Description: (§1) In addition, the inventors investigated the growth inhibitory effects of IV in melanoma cells with different NRAS and BRAF status, including A375 and UACC62 (NRASWT, BRAFV600E), and SK-MEL-2 and WM2032 (NRASQ61R, BRAFWT).
(§2) To further confirm the pharmacological effects of IV derive from STK19 inhibition and not G9a inhibition, the inventors investigated the role of G9a in NRAS signaling activation. G9a was silenced by G9a-specific shRNA or inhibited by a specific inhibitor, A-366, in SK-MEL-2 and WM2032 melanoma cells. […] In summary, ZT-12-037-01 (IV) is a specific STK19-targeted inhibitor to block oncogenic NRAS-driven melanocyte malignant transformation and melanoma growth.

WM2032 cells = assay type: cell-based, human; conditions: WM2032, G9a inhibition by A-366
Description: as §1, §2

Sequence of STK19 (P49842 other isoform, or with tags, fused parts or gaps): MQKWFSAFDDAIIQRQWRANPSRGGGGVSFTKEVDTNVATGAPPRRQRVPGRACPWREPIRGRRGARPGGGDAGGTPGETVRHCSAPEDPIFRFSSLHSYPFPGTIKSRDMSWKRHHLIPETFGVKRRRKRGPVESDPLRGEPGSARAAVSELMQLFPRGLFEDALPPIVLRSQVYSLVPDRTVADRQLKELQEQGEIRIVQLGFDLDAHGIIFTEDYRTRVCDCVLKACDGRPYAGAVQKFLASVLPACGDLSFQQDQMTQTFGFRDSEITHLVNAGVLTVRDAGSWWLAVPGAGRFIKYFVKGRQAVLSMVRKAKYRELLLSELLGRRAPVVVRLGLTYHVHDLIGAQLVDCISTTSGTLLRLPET

SMILES: COc1cc2nc(N3CCOCC3)nc(NC3CCN(C(C)C)CC3)c2cc1OC [Formula XXI]
- inhibition at 10 µM (STK19): 59%

SMILES: COc1cc2c(cc1OCCCN1CCCC1)N=C(N)C21CCC1 [Formula A-366, reference compound]
- H3K9 methylation levels (SK-MEL-2 cells): markedly repressed
- H3K9 methylation levels (WM2032 cells): markedly repressed
- inhibitory potential toward STK19 (STK19; in vitro kinase assay): little inhibitory potential
